From patent US12219938B2, “Mouse model of alcohol-induced liver cancer” (UNIVERSITY OF FLORIDA RESEARCH FOUNDATION, INCORPORATED, priority 2020, dated 2025)
Entries after “also recorded” stand apart in the source; their conditions may differ.

Assays:
senescent cells [1] = assay: X-gal staining for SA-β-galactosidase activity in STZ/EtOH-treated livers; format: in vivo, mice; conditions: 753B/EtOH-treated diabetic livers vs vehicle-treated controls
Bcl-xL = target: T1, Bcl-xL (Mus musculus, UniProt Q64373); assay: Western blotting of Bcl-xL in STZ/EtOH-treated diabetic livers; format: in vivo, mice; conditions: 5 mg/kg i.p. every other day, five-month administration, 6-month feeding of 5% ethanol, vs vehicle controls
T1 construct: from tissue; host or cells: liver of STZ/EtOH-treated diabetic mice
T1 sequence (Q64373 whole entry): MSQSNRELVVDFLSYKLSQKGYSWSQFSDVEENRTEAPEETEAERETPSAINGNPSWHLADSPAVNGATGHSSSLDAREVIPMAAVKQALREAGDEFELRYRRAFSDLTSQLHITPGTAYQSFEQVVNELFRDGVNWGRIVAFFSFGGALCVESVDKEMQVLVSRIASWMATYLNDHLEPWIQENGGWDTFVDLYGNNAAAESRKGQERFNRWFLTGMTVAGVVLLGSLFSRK
Source text: PROTACs are bivalent small molecules containing a ligand that recognizes a target protein linked to another ligand that recruits a specific E3 ubiquitin ligase.^46,47 PROTAC binding induces proximity-induced ubiquitination of the target protein and its subsequent degradation by proteasomes. PROTACs act catalytically to induce protein degradation in a sub-stoichiometric manner. They result in less drug exposure and reduced toxicity compared with traditional inhibitors since their effect is not limited by equilibrium occupancy. […] PROTAC technology was used to develop a Bcl-xL specific PROTAC (Bcl-xL-P), which targets Bcl-xL to the E3 ligase cereblon (CRBN) or VHL. ES ligases cereblon and VHL are poorly expressed in platelets.^51-53Bcl-xL and Bcl-2 dual PROTACs/degraders that link to the VHL ligand and target Bcl-xL and Bcl-2 to VHL for ubiquitination and proteasome degradation were also developed. These Bcl-xL and Bcl-2 dual PROTACs/degraders are not only potent antitumor agents but also effective senolytic agents. PROTAC 753B targets Bcl-xL and Bcl-2 for proteasome degradation by linking to E3 ligase VHL. […] We examined the effect of 753B on EtOH-induced hepatocarcinogenesis. […] Magnetic resonance imaging (MRI) can allow precise and accurate quantification of tumour volume. […]

liver fibrosis = assay: Myofibroblast activation and liver fibrosis during EtOH-associated hepatocarcinogenesis in diabetic mice; format: in vivo
Source text: Fibrosis is characterized by myofibroblast cell activation and excessive collagen deposition. Extensive fibrotic reaction has been reported during NASH to HCC transition through the chemical and dietary intervention by STZ/HFD cotreatment.^4 We compared effects of 753B and control compound on liver fibrosis in the diabetic animals after 5-month drug administration. […] Decreased liver fibrosis was further verified after quantitative measurement of collagen content based on hydroxyproline assay in livers exposed to 753B administration (1031.8±116.4 versus 721.2±215.0) (FIG. 17D). Ishak score of the liver tissue in the livers were also analyzed. Grade 0 has no fibrosis. Grade 1 has fibrous expansion of some portal areas, with or without short fibrous septa. Grade 2 contains fibrous expansion of most portal areas, with or without short fibrous septa. Grade 3 has fibrous expansion of most portal areas with an occasional portal to portal bridging. Grade 4 contains fibrous expansion of portal areas with marked bridging including portal-portal and portal-central bridging. Grade 5 has marked portal-portal and portal-central bridging with occasional nodules (incomplete cirrhosis). Grade 6 has cirrhosis, probable or define.

senescent cells [2] = assay: Senolytic activity in livers of aging and STZ/HFD-treated mice; format: in vivo; conditions: data not shown
EtOH-HCC = assay: EtOH-induced hepatocarcinogenesis in STZ-treated diabetic mice (MRI and morphological evaluation of tumors); format: in vivo
Source text: Fujii et al. developed NASH-derived HCC model (STAM model) using STZ and HFD32.^15 This model replicates clinicopathological processes from fatty liver, NASH, fibrosis to HCC under diabetic background. The very high fat diet (HFD: 60% kcal fat) in combination with STZ also could induced morphologically detectable protrusion of liver tumor nodules at postnatal week 16. We have established a novel model in which ASH-associated liver cancer occurs in STZ-treated mice within 6 months after start of alcohol consumption (FIG. 2, 12). Mice were administered STZ on day two after birth. The STZ was administered in a dose sufficient to kill insulin-producing cells, and lead to diabetic mice. The streptozotocin-treated mice were then fed a Lieber-Decarli alcohol-liquid diet (EtOH) for four months starting at 8 weeks of age. Streptozotocin (200 μg/pup) was given through subcutaneous injection into mice at postnatal day 2. This dose was used to induce pre-diabetic condition in treated mice. This alcohol-liquid diet is from Bio-Sery (F1258) and EtOH is added into the liquid diets daily.
(§1) PROTACs are bivalent small molecules containing a ligand that recognizes a target protein linked to another ligand that recruits a specific E3 ubiquitin ligase.^46,47 PROTAC binding induces proximity-induced ubiquitination of the target protein and its subsequent degradation by proteasomes. PROTACs act catalytically to induce protein degradation in a sub-stoichiometric manner. They result in less drug exposure and reduced toxicity compared with traditional inhibitors since their effect is not limited by equilibrium occupancy. […] PROTAC technology was used to develop a Bcl-xL specific PROTAC (Bcl-xL-P), which targets Bcl-xL to the E3 ligase cereblon (CRBN) or VHL. ES ligases cereblon and VHL are poorly expressed in platelets.^51-53Bcl-xL and Bcl-2 dual PROTACs/degraders that link to the VHL ligand and target Bcl-xL and Bcl-2 to VHL for ubiquitination and proteasome degradation were also developed. These Bcl-xL and Bcl-2 dual PROTACs/degraders are not only potent antitumor agents but also effective senolytic agents. PROTAC 753B targets Bcl-xL and Bcl-2 for proteasome degradation by linking to E3 ligase VHL. […] We examined the effect of 753B on EtOH-induced hepatocarcinogenesis. 753B was administered through intraperitoneal injection at 5 mg/kg body weight every other day starting at one week after alcohol consumption. In parallel experiments, vehicle-treated control animals received a compound that could not interact with the VHL E3 ligase. […] Magnetic resonance imaging (MRI) can allow precise and accurate quantification of tumour volume. Therefore, we performed abdominal Mill examinations before or after Gd-chelate-enhanced MRI. HCC lesions were identified based on hypointense signals in T1 and hyperintense signals in T2-weighted scan at 6 months after EtOH feeding in the diabetic murine livers. In contract few lesions were found in EtOH fed animals treated with 753B (FIG. 16D). These Mill signals matched morphological evaluations of liver cancers in the sacrificed animals (FIG. 16E). […] Ratio of liver to body weight is an indicator of hepatocyte proliferation during liver regeneration and liver cancer development.

[3] = test system: SASP genes, liver cancer markers (Gpc3 and Afp), oncogenes (Myc, Tgfa); assay: Western blotting and Q-RT-PCR of senescence, liver cancer marker and oncogene expression in STZ/EtOH-treated livers; format: in vivo, mice
Source text: as §1

[4] = 5-month drug administration, vs controls
[5] = STZ/EtOH-treated livers, 5 mice per group
[6] = Q-RT-PCR, 753B/EtOH-treated diabetic livers vs vehicle-treated controls

Cc1ncsc1-c1ccc([C@H](C)NC(=O)[C@@H]2C[C@@H](O)CN2C(=O)[C@@H](NC(=O)CCCCCCC(=O)N2CCN(C[C@]3(C)CCC(c4ccc(Cl)cc4)=C(CN4CCN(c5ccc(C(=O)NS(=O)(=O)c6ccc(N[C@H](CCN7CCOCC7)CSc7ccccc7)c(S(=O)(=O)C(F)(F)F)c6)cc5)CC4)C3)CC2)C(C)(C)C)cc1 [753B]
senescence by SA-β-gal activity (X-gal staining) (senescent cells [1]): little senescence; also recorded: inhibited senescent cell accumulation | Bcl-xL accumulation (Western blotting) (Bcl-xL): effectively inhibited Bcl-xL accumulation | collagen deposition (Sirius red staining and Western analysis) (liver fibrosis; [4]): significantly lower; also recorded: little collagen deposition | myofibroblast activation (aSMA immunofluorescent staining and Western blotting) (liver fibrosis; [4]): significantly reduced; also recorded: few myofibroblast activation | mRNA of fibrosis-related markers (aSMA, Col1a1, Col1a2, Col4a1, Col4a2, Tgf-b2, Ctgf, Pdgf-b, Spp1) (liver fibrosis; Q-RT-PCR, diabetic animals after 5-month drug administration, vs control compound): significant downregulation; also recorded: lower levels | aSMA and pro-collagen type I proteins (Western blotting) (liver fibrosis; STZ/EtOH/753B-treated livers): low levels | Ishak score of liver fibrosis (liver fibrosis; vs controls, 5-6 livers per group): significantly decreased; also recorded: lower levels | senolytic activity in livers (senescent cells [2]): high senolytic activity | formation of tumor nodules, number (EtOH-HCC; [5]): efficiently inhibited | formation of tumor nodules, volume (EtOH-HCC; [5]): efficiently inhibited | ratio of liver to body weight (EtOH-HCC; STZ/EtOH-treated mice, 5 mice per group): significantly decreased | HCC lesions in MRI (EtOH-HCC; T1/T2-weighted scan at 6 months after EtOH feeding): few lesions | tumor size (diameter) of the majority of tumors (EtOH-HCC; morphological evaluation, STZ/EtOH-treated livers): small in size (<2 mM and 2-5 mm) | Gpc3 protein expression (Western blotting) ([3]; 5 mg/kg i.p. every other day, five-month administration, diabetic livers, 6-month feeding of 5% ethanol): reduced Gpc3 expression; also recorded: blocked induction | mRNA levels of SASP genes (Cdkn2a/p16, Cdkn2b/p15, Ccl2, Ccl11, Serpine1/PAI1, Ccl12) [3, 6]: significant reduction; also recorded: inhibited mRNA levels | mRNA levels of liver cancer markers (Gpc3 and Afp) [3, 6]: significant reduction; also recorded: inhibited mRNA levels | mRNA levels of oncogenes (Myc and Tgfa) [3, 6]: significant reduction
